Experimental data taken from patent publication US20040009168A1, “Multidose antibody formulation” (priority 2002, published 2004).

Assays:
[1] = test system: formulated humanized monoclonal antibody; test: Differential scanning calorimetry (DSC), denaturation temperature; type: physicochemical; details: for Effect on the denaturation temperature (in words): addition of the preservative, relative to control; for Tm (by DSC): initial time point, t0
Experimental: (§1) The compatibility of six parenteral preservatives (benzyl alcohol, chlorobutanol, methyl paraben, propyl paraben, phenol, and m-cresol) with the formulated humanized monoclonal antibody was tested. The preservatives were added to the formulated antibody based on their commonly used concentration ranges in marketed multidose products (3). Protein aggregation was suspected to be the primary degradation pathway. Preliminary evaluation of the preservatives was done initially by DSC and after 2 days of incubation at 50° C. by visual inspection for appearance and by SEC for soluble aggregates.
A decrease in the denaturation temperature reflects a destabilizing effect of the preservative on formulation stability. The denaturation temperature (Tm) of the sample was measured using the Pyris 1 differential scanning calorimeter (Perkin Elmer). A sample volume of 50 μL was taken from a 10 mg/mL protein sample and sealed in a stainless steel pan. The sample was held at 32° C. for 2 minutes, and heated to 100° C. at the rate of 10° C./min.

[2] = test system: Candida albicans, and Aspergillus niger; test: Preservative screening test (modified USP/EP preservative efficacy test), fungi; type: cell-based; details: for Fungi × 10^5 (cfu/mL): 1 week at 25 ° C., total fungal count 2.84 × 10^5 cfu/mL
Experimental: (§2) The efficacy of the preservative against various microorganisms was measured using a modified USP/EP preservative efficacy test. These tests were conducted at Microconsult Inc. (Dallas, Tex.). In the procedure, formulations were tested against the following microorganisms: Escherichia coli, Staphylococcus aureus, Pseudomonas aeruginosa, Candida albicans, and Aspergillus niger. The three bacterial strains were inoculated together at a total concentration of ˜10^5 cfu/mL, and the two fungi were inoculated together at a total concentration of ˜10^5 cfu/mL. Samples were incubated for 7 days at room temperature (25° C.), and the total bacterial and fungal counts were measured using a colony counter. The log reduction (LR) values for the bacterial and fungal counts were calculated as log (initial count/final count).
(§3) In the unmodified USP/EP preservative efficacy tests, each microorganism is tested separately at a concentration of ˜10^5 cfu/mL. […] The preservative efficacy test was modified in this study to reduce the total sample requirement and cost per analysis. Although the bacterial and fungal strains were not tested individually at specified concentrations, by comparing the overall bacterial and fungal log reduction values with the regulatory requirements, an assessment is made of the efficacy of the preservative against these microorganisms.
(§4) The formulations were prepared by adding the preservatives at the desired concentrations as per the I-optimal design table (Table II), generated using the software Strategy (Experiment Strategies Foundation & Process Builder, Inc.). All samples were incubated at 37° C. for 9 weeks. Because protein aggregation was known to be the primary degradation pathway, protein stability was examined by SEC and right-angle light scattering to monitor the formation of soluble and insoluble aggregates, respectively, and by UV spectroscopy to monitor changes in the protein concentration. The biological activity of the samples was assessed after 1 month at 37° C. Furthermore, to assess the antimicrobial efficacy of the formulations, samples were examined by the preservative screening test at the initial time point. Samples were incubated at room temperature, and the aerobic plate counts were measured based on the minimum requirements of the USP and BP/EP preservative efficacy tests at 24 hours, 7 days, and 14 days.

[3] = test system: Escherichia coli, Staphylococcus aureus, Pseudomonas aeruginosa; test: Preservative screening test (modified USP/EP preservative efficacy test), bacteria; type: cell-based; details: for antimicrobial efficacy against bacteria (regression analysis, in words): I-optimal design, 14 days at room temperature; for b-coefficient, Bacterial LR: ± 95% confidence limits; for Bacterial × 10^4 (cfu/mL): 1 week at 25 ° C., total bacterial count 8.78 × 10^4 cfu/mL; for maximal log reduction against bacteria (model simulation): individual preservative
Experimental: as §2, §3, §4

[4] = test system: formulated humanized monoclonal antibody; test: Size-exclusion chromatography (SEC), monomer content; type: physicochemical; details: for Effect of the preservative on antibody stability (in words): preliminary screening, 2 days at 50° C.; for Monomer (%): 1 week at 45 ° C.; for Percent monomer (by SEC): after 2 days at 50° C.
Experimental: as §1
(§5) Because of the results seen in the preliminary evaluation, additional analyses were done using lower concentrations of the preservatives.
The monomer content, soluble aggregates, and clips due to hydrolysis were monitored by size-exclusion chromatography. The analytical system employed consisted of an HPLC pump (Perkin Elmer, Series 410) and an autosampler (Perkin Elmer, ISS 2000) connected to a diode array detector (Perkin Elmer, 235C). Two size-exclusion chromatography columns (Tosohaas TSK-Gel, G3000SWXL,), connected in tandem, were used for sample separation. The composition of the mobile phase was 200 mM KPO4, 150 mM NaCl, pH 6.9. Samples were diluted to 1 mg/mL and a sample volume of 40 μL was injected for analysis. The flow rate was 1.0 mL/min, and detection was at 220 and 280 nm.

[5] = test system: formulated humanized monoclonal antibody; test: Visual analysis of the antibody formulation with preservative; type: physicochemical; details: for Visual analysis: after 2 days at 50° C.
Experimental: as §1

[6] = test system: antigen expressed on human T cells; test: Potency testing by FACS binding assay (flow cytometry); details: 1 week at 45 ° C.
Experimental: as §5
The biological activity (potency) of the protein was measured by flow cytometry, based on the binding of the antibody antigen expressed on human T cells.

[7] = main effect of the preservative (bi)
[8] = quadratic term of one preservative (bii)
[9] = single preservative, 0.2% chlorobutanol

Row | Monomer (%) ([4]; preservative 0.01%) | Compound | Effect on the denaturation temperature (in words) [1] | b-coefficient, Fungal LR [2, 7] | Fungi × 10^5 (cfu/mL) ([2]; preservative 0.01%) | b-coefficient, Fungal LR [2, 8] | antimicrobial efficacy against bacteria (regression analysis, in words) [3] | b-coefficient, Bacterial LR [3, 7] | Bacterial × 10^4 (cfu/mL) ([3]; preservative 0.01%) | b-coefficient, Bacterial LR [3, 8] | Effect of the preservative on antibody stability (in words) [4] | Potency (%) ([6]; preservative 0.01%) | Percent monomer (by SEC) ([4]; preservative 0.1%) | Visual analysis ([5]; preservative 0.1%) | Fungi × 10^5 (cfu/mL) ([2]; preservative 0.05%) | Fungi × 10^5 (cfu/mL) ([2]; preservative 0.1%) | maximal log reduction against bacteria (model simulation) [3] | further results
1 | 97.34% | CCCOC(=O)c1ccc(O)cc1 [Propyl paraben, propyl paraben] | did not affect the denaturation temperature | 0.29 | 0 × 10^5 cfu/mL | 0.40 | not effective | −0.14 ± 0.05 | TNTC | 0.26 ± 0.10 | stable | 68% | – | – | – | – | – | Tm (by DSC) ([1]; preservative 0.02%): 80.6 °C; Fungi × 10^5 (cfu/mL) ([2]; preservative 0.0075%): 2 × 10^5 cfu/mL; Bacterial × 10^4 (cfu/mL) ([3]; preservative 0.0075%): TNTC; Monomer (%) ([4]; preservative 0.0075%): 97.89%; Percent monomer (by SEC) ([4]; preservative 0.02%): 85.3%; Percent monomer (by SEC) ([4]; preservative 0.02%, listed as propyl paraben): 85%; Visual analysis ([5]; preservative 0.02%): Clear; Potency (%) ([6]; preservative 0.0075%): 74%
2 | – | Oc1ccccc1 [Phenol, phenol] | – | – | – | – | – | – | – | – | not compatible with the protein | – | 62.7% | Slightly cloudy | – | – | – | Effect of the preservative on antibody stability (in words) ([4]; listed as phenol): caused the formation of both soluble and insoluble aggregates; Percent monomer (by SEC) ([4]; preservative 0.5%): 20.0%; Visual analysis ([5]; preservative 0.5%): Cloudy
3 | 98.31% | COC(=O)c1ccc(O)cc1 [Methyl paraben, methyl paraben] | did not affect the denaturation temperature | 0.46 | 26 × 10^5 cfu/mL | 0.00 | statistically significant antimicrobial efficacy | 0.60 ± 0.05 | TNTC | 0.12 ± 0.10 | stable | 73% | 91.3% | Clear | 2 × 10^5 cfu/mL | 0 × 10^5 cfu/mL | 2.3 | Tm (by DSC) ([1]; preservative 0.05%): 80.4 °C; Bacterial × 10^4 (cfu/mL) ([3]; preservative 0.05%): TNTC; Bacterial × 10^4 (cfu/mL) ([3]; preservative 0.1%): 56 × 10^4 cfu/mL; Monomer (%) ([4]; preservative 0.05%): 97.43%; Monomer (%) ([4]; preservative 0.1%): 97.18%; Percent monomer (by SEC) ([4]; preservative 0.1%, listed as methyl paraben): ~91%; Visual analysis ([5]; preservative 0.05%): Clear; Potency (%) ([6]; preservative 0.05%): 75%; Potency (%) ([6]; preservative 0.1%): 75%
4 | – | CC(C)(O)C(Cl)(Cl)Cl [Chlorobutanol, chlorobutanol] | – | 0.07 | – | −0.64 | – | 0.27 ± 0.05 | – | 0.17 ± 0.10 | – | – | – | – | 18 × 10^5 cfu/mL | 14 × 10^5 cfu/mL | 2.0 | Fungi × 10^5 (cfu/mL) ([2]; preservative 0.2%): 0 × 10^5 cfu/mL; log reduction value predicted by simulation, fungi [2, 9]: 1.2; Bacterial × 10^4 (cfu/mL) ([3]; preservative 0.2%): 46 × 10^4 cfu/mL; log reduction value predicted by simulation, bacteria [3, 9]: 2.0
5 | – | Cc1cccc(O)c1 [m-cresol] | – | – | – | – | – | – | – | – | not compatible with the protein | – | – | Precipitated | – | – | – | Visual appearance of the formulations (in words) ([5]; all tested concentrations, 2 days at 50° C.): precipitated the protein; Visual analysis ([5]; preservative 0.3%): Precipitated
